Measurements: publication PMC12339163, “Combining Plant Bioactives With Antibiotics for Enhanced Antibiofilm Activity Against Uropathogenic Staphylococcus spp. and Cytotoxicity Evaluation” (Advances in Pharmacological and Pharmaceutical Sciences, 2025)
Values after ≈ are worked out from the molar mass of the structure shown. Like-named read-outs stand apart in the source and are kept apart here.

Key:
[1] = test system: planktonic cells of Staphylococcus saprophyticus; assay: Checkerboard combination assay, planktonic cells; type: cell-based; conditions: S. saprophyticus, mean; for MIC: Staphylococcus saprophyticus
Experimental: (§1) The checkerboard assay, as previously described, was used for the determination of the fractional inhibitory concentration index (FICI). Briefly, 50 µL of MHB was distributed into each well of a 96-well microplate. ATBs were serially diluted along the abscissa, and NPs were serially diluted along the ordinate. Then, 100 µL of bacterial inoculum (1.5 × 10^6 CFU/mL) was added to each well and incubated at 37°C for 24 h. The final concentration ranged from 0.125 to 128 µg/mL for ATBs and 4–512 µg/mL for NPs. After incubation, a volume of 40 µL of INT solution (0.2 mg/mL) was added to each well, and the microplate was incubated at 37°C for 30 min. The wells containing bacterial inoculum and MHB were used as a positive control, while wells containing only MHB + 1% glucose were used as a negative control and used as a blank. Viable bacteria cells change the yellow dye of INT to a pink color. The MICs were considered to be the lowest NP concentrations that prevented the color change medium. Subsequently, the FICI was calculated according to the formula FICI = (MIC of the ATBs in combination/MIC of the ATBs alone) + (MIC of a natural substance in combination/MIC of the natural substance alone). FICI values were interpreted as follows: synergy when FICI ≤ 0.5; additive when 0.5 < FICI ≤ 1; indifference when 1 < FICI ≤ 4; and antagonism when FICI > 4.

[2] = test system: planktonic cells of Staphylococcus aureus; assay: Checkerboard combination assay, planktonic cells; type: cell-based; conditions: S. aureus, mean; for MIC: Staphylococcus aureus
Experimental: as §1

[3] = test system: S. epidermidis; assay: MIC and MBC, broth microdilution; type: cell-based, Staphylococcus epidermidis; conditions: geometric mean, S. epidermidis (n = 3)
Experimental: Seven clinical isolates of Staphylococcus spp. including 2 S. aureus, 3 S. saprophyticus, and 2 S. epidermidis were used. They were isolated from urine samples in our previous study. Two reference strains (S. aureus ATCC1026 and S. epidermidis ATCC35984) obtained from the American Type Culture Collection were also included. They were kept in the mixture of glycerol and Mueller Hinton Broth (MHB) (1:1) at −20°C, and the activation was achieved using the streak technique on Mueller Hinton agar (MHA) medium.
The MICs of ATBs and NPs were determined by the broth microdilution method as previously described. NPs and ATBs were, respectively, prepared at 4096 µg/mL and 512 µg/mL and serially diluted twofold with MHB in a 96-well microplate at a volume of 100 µL. Then, the wells were filled with 100 µL of inoculum (1.5 × 10^6 CFU/mL) to give final concentrations ranging from 1024 µg/mL to 0.5 µg/mL and 128 µg/mL to 0.062 µg/mL of NPs and ATBs, respectively. The microplates were incubated for 24 h at 37°C. Wells containing only bacterial inoculum were used as the negative control. After incubation, a volume of 40 µL of INT solution (0.2 mg/mL) was added to each well, and the microplate was incubated at 37°C for 30 min. Viable bacteria cells change the yellow dye of INT to a pink color. The MIC was considered as the lowest concentration of the sample at which there was no change in the coloration of the medium, corresponding to the complete inhibition of microbial growth.
All tests were performed in triplicate.

[4] = test system: S. saprophyticus biofilm; assay: Biofilm eradication assay (MBEC, MTT); type: cell-based, Staphylococcus saprophyticus; conditions: geometric mean, S. saprophyticus (n = 3); for minimal effective concentration: Staphylococcus saprophyticus, 24 h
Experimental: The determination of the biofilm eradication potential of NPs and ATBs was performed as previously described. Briefly, 100 µL of bacterial inoculum (1.5 × 10^6 CFU/mL) and 100 µL of MHB + 1% glucose were introduced into the microplate, incubated at 37°C for 24 h, and the microplate was gently emptied and washed three times with PBS. Then, 200 µL of ATBs or NPs at respective concentrations ranging from 8 to 1024 µg/mL and from 16 to 2048 µg/mL were incubated at 37°C for 24 h. Once incubation was completed, the microplate was processed as described above, and the percentage of biofilm eradication was calculated using the formula below. The minimal biofilm eradicating concentration (MBEC) was recorded as the lowest concentration of the test sample that reduces 100% of biofilm:(2) % biofilm eradication=ODcontrol−ODblank−ODtest−ODblank/ODcontrol−ODblank×100.

[5] = test system: UROtsa urinary epithelial cells; assay: Cytotoxicity, MTT assay; type: cell-based; conditions: 48 h
Experimental: (§2) Two cell lines, including Raw 264.7 macrophages and the urinary epithelial cell line UROtsa obtained from the American Type Culture Collection (Rockville, MD, USA), were used. They were cultured in Dulbecco's modified Eagle's medium (DMEM), which was supplemented with 10% fetal bovine serum (FBS) and 1% penicillin, streptomycin, and fungizone (PSF). They were then grown at 37°C in a humidified environment containing 5% CO2.
(§3) The cytotoxicity of the selected synergistic combinations, as well as the individual constituents of combinations, against the abovementioned cell lines was performed by the MTT assay as previously described. Briefly, cells from each line were harvested in the logarithmic phase using trypsin (0.05% trypsin, 0.02% EDTA in PBS). Cell suspension was diluted with an appropriate growth medium to obtain a cell density of 10^4 cells/well. A 100 µL aliquot of each suspension was seeded into 96-well cell culture plates and incubated at 37°C in an atmosphere of 5% CO2 and 95% relative humidity. After 24 h of incubation, 100 µL of samples (ATBs and NPs) at concentrations varying from 0.01, 0.1, 1, 10, 100, and 1000, as well as the synergistic combinations (C1 to C5), was added to the wells containing the cells. Doxorubicin was used as a positive control. Appropriate controls with an equivalent concentration of DMSO were also included. Plates were incubated for 48 h, then the medium in each well was aspirated, and MTT solution (2 mg/mL in PBS) was diluted 1:10 with fresh medium and added to each well, and the plates were further incubated at 37°C for 4 h. Absorbance was measured on a BioTek microplate reader at 570 nm. The percentage of cell viability was calculated by comparing treated and untreated cells using the equation [39]:(3) cell viability %=ODtest/ODcontrol×100.
(§4) Then, the IC50 values of the samples having shown at least 50% inhibition were calculated by plotting the percentage of inhibition against the concentrations.

[6] = test system: Raw 264.7 macrophages; assay: Cytotoxicity, MTT assay; type: cell-based; conditions: Raw 264.7, MTT
Experimental: as §2, §3, §4

[7] = Staphylococcus epidermidis, antibiotics, read-out: MBC
[8] = Staphylococcus epidermidis, read-out: MIC
[9] = Staphylococcus epidermidis, natural products, read-out: MBC

Row | Compound | MIC [3, 8] [µg/mL] | minimal effective concentration [4] [µg/mL] | MIC ([1]; 24 h, read-out: MIC alone, NPs) [µg/mL] | MIC ([1]; read-out: MIC alone, NPs) [µg/mL] | MIC ([2]; 24 h, read-out: MIC alone, NPs) [µg/mL] | MIC ([2]; read-out: MIC alone, NPs) [µg/mL] | MBC [3, 9] [µg/mL] | also measured
1 | C[C@H]1c2cccc(O)c2C(=O)C2=C(O)[C@]3(O)C(=O)C(C(N)=O)=C(O)[C@@H](N(C)C)[C@@H]3[C@@H](O)[C@@H]21 [Doxycycline, doxycycline] | 7 (≈ 15.8 µM) | 9.33 |  |  |  |  |  | MIC ([1]; 24 h, read-out: MIC alone, ATB): 32.2 µg/mL; MIC ([1]; read-out: MIC alone, ATB): 32.2 µg/mL; MIC ([2]; 24 h, read-out: MIC alone, ATB): 6.16 µg/mL; MIC ([2]; read-out: MIC alone, ATB): 6.16 µg/mL; MBC [3, 7]: 8 µg/mL (≈ 18 µM)
2 | CC[C@H]1OC(=O)[C@H](C)[C@@H](O[C@H]2C[C@@](C)(OC)[C@@H](O)[C@H](C)O2)[C@H](C)[C@@H](O[C@@H]2O[C@H](C)C[C@H](N(C)C)[C@H]2O)[C@](C)(O)C[C@@H](C)C(=O)[C@H](C)[C@@H](O)[C@]1(C)O [Erythromycin, erythromycin] | 32.7 (≈ 44.5 µM) | 29.3 |  |  |  |  |  | MIC ([1]; 24 h, read-out: MIC alone, ATB): 4.66 µg/mL; MIC ([1]; read-out: MIC alone, ATB): 4.66 µg/mL; MIC ([2]; 24 h, read-out: MIC alone, ATB): 108 µg/mL; MIC ([2]; read-out: MIC alone, ATB): 108 µg/mL; MBC [3, 7]: > 128 µg/mL
3 | O=C(O)c1cc(O)c(O)c(O)c1 [Gallic acid, 3,4,5-trihydroxybenzoic acid] | 427 (≈ 2510 µM) | 299 | 427 | 427 | 427 | 427 | > 1020 | 
4 | NC[C@H]1O[C@H](O[C@H]2[C@H](O)[C@@H](O[C@H]3O[C@H](CO)[C@@H](O)[C@H](N)[C@H]3O)[C@H](N)C[C@@H]2N)[C@H](O)[C@@H](O)[C@@H]1O [Kanamycin, kanamycin] |  |  |  |  |  |  |  | MIC alone, ATB [1]: 14 µg/mL; MIC alone, ATB [2]: 22.66 µg/mL; MBC ([3]; antibiotics): 12 µg/mL (≈ 24.8 µM); MIC [3]: 7.33 µg/mL (≈ 15.1 µM); MBEC [4]: 10.66 µg/mL; IC50 [5]: — (IC50 > 1000 µg/mL); IC50 ([6]; 48 h): — (IC50 > 1000 µg/mL)
5 | CC1=CC(=O)c2c(O)cccc2C1=O [Plumbagin, plumbagin] | 90.7 (≈ 482 µM) | 10.7 | 8.66 | 8.33 | 4.66 | 4.66 | > 1020 | 
6 | O=c1c(O)c(-c2ccc(O)c(O)c2)oc2cc(O)cc(O)c12 [Quercetin, quercetin] | 512 (≈ 1690 µM) | 171 | 427 | 427 | 427 | 341 | > 1020 | MIC alone, NPs ([1]; listed as Que): 341.33 µg/mL
7 | Cc1ccc(C(C)C)c(O)c1 [Thymol, thymol] | 341 (≈ 2270 µM) | 107 | 341 | 341 | 299 | 299 | > 1020 | IC50 ([5]; Epithelial cell, read-out: IC50): > 1000 µg/mL; IC50 ([6]; Mus musculus, RAW264.7, 48 h, read-out: IC50): 442 µg/mL
